# Read-outs that look alike come from different tables or passages of the source.
# Experiments:
# [1] = test system: human liver cancer cells Bel-7402 transplanted tumor; type: in vivo; details: for Quantity of Animals Whose Tumors Vanished / Inhibition Rate (%) / Tumor Volume (mm^3): PO; for Quantity of Animals Whose Tumors Vanished: 5 animals per group; for Inhibition Rate (%) / Tumor Volume (mm^3): Bel-7402 on nude mice; for tumors vanished (animals/group): at the 11th day; for tumors vanished (animals/group) / toxicity / survivability of mice: intragastrically once a day for 11 days; for recrudescence of tumors: at the end of the experiment (17th day); for toxicity / survivability of mice: nude mice
# Description: Name and lot number: YHHU-744, a white powder, lot No.: No. c001471-106; YHHU-755, a white powder, lot No.: No. c001471-102; YHHU-756, a white powder, lot No.: No. c00147-106; YHHU-759, a white powder, lot No.: No. c001471-102; YHHU-776, a white powder, lot No.: No. c001471-107. Sorafenib was used as a positive control.
# Formulation: YHHU-744, YHHU-755, YHHU-756, YHHU-759, YHHU-776 and the positive control were each diluted with 0.1% Tween-80 and distilled water to a desired concentration.
# BALB/cA nude mice, 6-7 weeks old, ♀, were purchased from Shanghai SLAC Laboratory Animal Co. LTD. Certificate No.: SCXK (Shanghai) 2007-0005. Habitat: SPF level.
# Human liver cancer cells Bel-7402 were inoculated on nude mice subcutaneously. After the tumor grew up to 300-450 mm^3, animals were grouped randomly (d0). The tumor volume was measured 2-3 times each week and the weights of mice were recorded. The tumor volume was calculated according to as the following equation. V=½×a×b^2 wherein, a and b are length and width, respectively. […]
# [2] = test system: human hepatoma cell line Bel-7402; assay: SRB proliferation assay, Bel-7402; type: cell-based; details: Homo sapiens, Bel-7402, 72 h, BEL-7402 cultivated in vitro, given as bounds, read-out: The Inhibition Activities for Human Liver Cancer Cells BEL-7402 (IC50)
# Protocol: (§1) Protocol: the antineoplasmic activities in vitro of the compounds were assayed by a Sulforhodamine B (SRB) protocol. Tumor cells were cultivated at 37 under 5% CO2 in a RPMI 1640 medium or a DMEM medium (Gibco) containing 10% fetal bovine serum. Tumor cells were inoculated on a 96-well plate with a concentration of 0.4-1.0×10^4 cells per well according to the cell types. 24 hours later, the target compounds diluted 10 times were added, each compound having at least 5 concentrations. After treated by the compounds for 72 hours, the culture media were discarded, and the cells were fixed by 10% cold trichloroacetic acid, and then stained by Sulforhodamine B (SRB) solution. The uncombined SRB was washed off, and the SRB combined with protein was dissolved with Tris. OD values were recorded at 515 nm on an ELISA Reader, and the cell growth inhibition rate was calculated according to following equation: Inhibition rate=(ODcontrol−ODexperimental)/ODcontrol×100%
# IC50 (50% inhibitory concentration) was calculated by using Logit method based on the inhibition rates at various concentration, and the results are shown in tables 1 and 2.
# The following cell lines were used: human hepatocarcinoma cell line […]; ovarian cancer cell line SK-OV-3; human breast cancer cell line MDA-MB-231; human renal carcinoma cell line A498; colon adenocarcinoma cell line HT-29; non-small cell lung cancer cell line NCI-H460; lung adenocarcinoma cell line A549; human colon cancer cell line SW-620; human hepatoma cell line Bel-7402; human breast carcinoma cell line SK-BR-3; and human umbilical vein endothelial cells (HUVEC).
# [3] = test system: SMMC-7721 liver cancer cells; assay: SRB assay Example 17, SMMC-7721; type: cell-based; details: Homo sapiens, 72 h
# Protocol: as §1, with “diluted 3” for “diluted 10”, “least 9” for “least 5”
# (§2) IC50 (50% inhibitory concentration) was calculated by using Logit method based on the inhibition rates at various concentration, and the results are shown in table 4.
# (§3) Proliferation of turner cells was assayed by SRB protocol, drug action 72 h.
# H460 lung cancer cells = assay: SRB assay Example 17, H460; type: cell-based; details: Homo sapiens, NCI-H460, 72 h
# Protocol: as §1, with “diluted 3” for “diluted 10”, “least 9” for “least 5”
# as §2, §3
# [4] = test system: HCCC-9810 liver cancer cells; assay: SRB assay Example 17, HCCC-9810; type: cell-based; details: Homo sapiens, HCCC9810, 72 h
# Protocol: as §1, with “diluted 3” for “diluted 10”, “least 9” for “least 5”
# as §2, §3
# [5] = test system: QSG-7701 liver cancer cells; assay: SRB assay Example 17, QSG-7701; type: cell-based; details: Homo sapiens, QSG7701, 72 h
# Protocol: as §1, with “diluted 3” for “diluted 10”, “least 9” for “least 5”
# as §2, §3
# HepG2 liver cancer cells = assay: SRB assay Example 17, HepG2; type: cell-based; details: Homo sapiens, 72 h
# Protocol: as §1, with “diluted 3” for “diluted 10”, “least 9” for “least 5”
# as §2, §3
# [6] = test system: Bel-7404 liver cancer cells; assay: SRB assay Example 17, Bel-7404; type: cell-based; details: Homo sapiens, 72 h
# Protocol: as §1, with “diluted 3” for “diluted 10”, “least 9” for “least 5”
# as §2, §3
# [7] = test system: MCF-7 breast carcinoma cells; assay: SRB assay Example 17, MCF-7; type: cell-based; details: Homo sapiens, MCF7, 72 h
# Protocol: as §1, with “diluted 3” for “diluted 10”, “least 9” for “least 5”
# as §2, §3
# Chang liver liver cell = assay: SRB assay Example 17, Chang liver; type: cell-based; details: Homo sapiens, 72 h
# Protocol: as §1, with “diluted 3” for “diluted 10”, “least 9” for “least 5”
# as §2, §3
# [8] = test system: QGY-7703 liver cancer cells; assay: SRB assay Example 17, QGY-7703; type: cell-based; details: Homo sapiens, 72 h
# Protocol: as §1, with “diluted 3” for “diluted 10”, “least 9” for “least 5”
# as §2, §3
# [9] = test system: A2780 ovarian cancer cells; assay: SRB assay Example 17, A2780; type: cell-based; details: Homo sapiens, 72 h
# Protocol: as §1, with “diluted 3” for “diluted 10”, “least 9” for “least 5”
# as §2, §3
# [10] = test system: human liver cancer cells SMMC-7721 transplanted tumor; assay: SMMC-7721 transplanted tumor on nude mice; type: in vivo; details: intragastrically once a day for 10 days; for growth of SMMC-7721 transplanted tumor: subcutaneous tumor on nude mice
# Protocol: Experimental procedure: BALB/cA nude mice, 6-7 weeks old, ♀, were purchased from Shanghai SLAC Laboratory Animal Co. LTD. Certificate No.: SCXK (Shanghai) 2007-0005. Habitat: SPF level. The compounds were diluted with 0.5% CMC containing 0.1% Tween-80 to a desired concentration. Human liver cancer cells SMMC-7721 were inoculated on nude mice subcutaneously. After the tumor grew up to 100-200 mm^3, animals were grouped randomly (d0). Mice were consecutively administered with compounds intragastrically once a day for 10 days. The tumor volume was measured 2-3 times each week and the weights of mice were recorded. The tumor volume (V) was calculated according to the following equation: V=½×a×b^2, wherein, a and b are length and width, respectively.
# HUH-7 liver cancer cells = assay: SRB assay Example 17, HUH-7; type: cell-based; details: Homo sapiens, 72 h
# Protocol: as §1, with “diluted 3” for “diluted 10”, “least 9” for “least 5”
# as §2, §3
# HL-7702 liver cell = assay: SRB assay Example 17, HL-7702; type: cell-based; details: Homo sapiens, L02, 72 h
# Protocol: as §1, with “diluted 3” for “diluted 10”, “least 9” for “least 5”
# as §2, §3
# [11] = test system: QGY-7701 liver cancer cells; assay: SRB assay Example 17, QGY-7701; type: cell-based; details: Homo sapiens, QGY7701, 72 h
# Protocol: as §1, with “diluted 3” for “diluted 10”, “least 9” for “least 5”
# as §2, §3
# [12] = test system: CNE nasopharyngeal carcinoma cells; assay: SRB assay Example 17, CNE; type: cell-based; details: Homo sapiens, 72 h
# Protocol: as §1, with “diluted 3” for “diluted 10”, “least 9” for “least 5”
# as §2, §3
# [13] = test system: HeLa cervical carcinoma cells; assay: SRB assay Example 17, HeLa; type: cell-based; details: Homo sapiens, 72 h
# Protocol: as §1, with “diluted 3” for “diluted 10”, “least 9” for “least 5”
# as §2, §3
# [14] = test system: SK-BR-3 breast carcinoma cells; assay: SRB assay Example 17, SK-BR-3; type: cell-based; details: Homo sapiens, 72 h
# Protocol: as §1, with “diluted 3” for “diluted 10”, “least 9” for “least 5”
# as §2, §3
# [15] = test system: Bel-7402 liver cancer cells; assay: SRB assay Example 17, Bel-7402; type: cell-based; details: Homo sapiens, drug action 72 h
# Protocol: as §1, with “diluted 3” for “diluted 10”, “least 9” for “least 5”
# as §2, §3
# Hep3B liver cancer cells = assay: SRB assay Example 17, Hep3B; type: cell-based; details: Homo sapiens, 72 h
# Protocol: as §1, with “diluted 3” for “diluted 10”, “least 9” for “least 5”
# as §2, §3
# A549 lung cancer cells = assay: SRB assay Example 17, A549; type: cell-based; details: Homo sapiens, 72 h
# Protocol: as §1, with “diluted 3” for “diluted 10”, “least 9” for “least 5”
# as §2, §3
# [16] = test system: SK-HEP-1 liver cancer cells; assay: SRB assay Example 17, SK-HEP-1; type: cell-based; details: Homo sapiens, SK-HEP1, 72 h
# Protocol: as §1, with “diluted 3” for “diluted 10”, “least 9” for “least 5”
# as §2, §3
# 3AO ovarian cancer cells = assay: SRB assay Example 17, 3AO; type: cell-based; details: Homo sapiens, 72 h
# Protocol: as §1, with “diluted 3” for “diluted 10”, “least 9” for “least 5”
# as §2, §3
# [17] = test system: HUVEC normal human umbilical vein endothelial cells; assay: SRB assay Example 17, HUVEC (20% FBS); type: cell-based; details: 72 h
# Protocol: as §1, with “diluted 3” for “diluted 10”, “least 9” for “least 5”
# as §2, §3
compound,measurement,setting,value
"CNC(=O)c1cc(Oc2ccc(NC(=O)Nc3ccc(Cl)c(C(F)(F)F)c3)cc2)ccn1 [Sorafenib, reference compound]",Quantity of Animals Whose Tumors Vanished,"[1]; 60 mg/kg, QDx16",0
same,Inhibition Rate (%),"[1]; 60 mg/kg, QDx16",50%
same,Tumor Volume (mm^3),"[1]; 60 mg/kg, QDx16",279.8 mm^3
O=c1ccc(-c2ccc(N3CCC(O)CC3)c(C(F)(F)F)c2)n[nH]1 [YHHU-776],IC50,[2],< 10 nM
same,Quantity of Animals Whose Tumors Vanished,"[1]; 100 mg/kg, QDx11",5
same,Inhibition Rate (%),"[1]; 100 mg/kg, QDx11",100%
same,Tumor Volume (mm^3),"[1]; 100 mg/kg, QDx11",338.2 mm^3
same,tumors vanished (animals/group),[1],5/5
same,recrudescence of tumors,[1],no recrudescence was observed
same,toxicity / survivability of mice,[1],no significant toxicity was observed
CN1CCN(c2ccc(-c3ccc(=O)[nH]n3)cc2C(F)(F)F)CC1 [YHHU-756],IC50,[3],10 nM
same,IC50,H460 lung cancer cells,12900 nM
same,IC50,[4],> 10000 nM
same,IC50,[5],20 nM
same,IC50,HepG2 liver cancer cells,> 10000 nM
same,IC50,[6],410 nM
same,IC50,[7],12100 nM
same,IC50,Chang liver liver cell,20 nM
same,IC50,[8],20 nM
same,IC50,[2],< 10 nM
same,IC50,[9],30 nM
same,survivability / weight loss of mice bearing cancer,[10],no symptoms such as weight loss was observed
same,growth of SMMC-7721 transplanted tumor,[10],caused part of the tumors vanished
same,IC50,HUH-7 liver cancer cells,> 10000 nM
same,IC50,HL-7702 liver cell,30 nM
same,IC50,[11],20 nM
same,IC50,[12],10 nM
same,IC50,[13],20 nM
same,IC50,[14],7100 nM
same,IC50,[15],20 nM
same,IC50,Hep3B liver cancer cells,> 10000 nM
same,IC50,A549 lung cancer cells,13200 nM
same,IC50,[16],> 10000 nM
same,IC50,3AO ovarian cancer cells,20 nM
same,IC50,[17],50 nM
same,Quantity of Animals Whose Tumors Vanished,"[1]; 100 mg/kg, QDx11",5
same,Inhibition Rate (%),"[1]; 100 mg/kg, QDx11",100%
same,Tumor Volume (mm^3),"[1]; 100 mg/kg, QDx11",294.6 mm^3
same,tumors vanished (animals/group),[1],5/5
same,recrudescence of tumors,[1],no recrudescence was observed
same,toxicity / survivability of mice,[1],no significant toxicity was observed
O=c1ccc(-c2ccc(N3CCCCC3)c(C(F)(F)F)c2)n[nH]1 [YHHU-755],IC50,[2],< 10 nM
same,Quantity of Animals Whose Tumors Vanished,"[1]; 100 mg/kg, QDx11",5
same,Inhibition Rate (%),"[1]; 100 mg/kg, QDx11",100%
same,Tumor Volume (mm^3),"[1]; 100 mg/kg, QDx11",350.4 mm^3
same,tumors vanished (animals/group),[1],5/5
same,recrudescence of tumors,[1],no recrudescence was observed
same,toxicity / survivability of mice,[1],no significant toxicity was observed
O=c1ccc(-c2ccc(N3CCOCC3)c(C(F)(F)F)c2)n[nH]1 [YHHU-759],IC50,[2],< 10 nM
same,growth of SMMC-7721 transplanted tumor,[10],significantly inhibited the growth
same,Quantity of Animals Whose Tumors Vanished,"[1]; 100 mg/kg, QDx11",5
same,Inhibition Rate (%),"[1]; 100 mg/kg, QDx11",100%
same,Tumor Volume (mm^3),"[1]; 100 mg/kg, QDx11",367.9 mm^3
same,tumors vanished (animals/group),[1],5/5
same,recrudescence of tumors,[1],no recrudescence was observed
same,toxicity / survivability of mice,[1],no significant toxicity was observed
